Like-named read-outs stand apart in the source and are kept apart here.
Tests used:
AKR1B15 [1] = biological target: T1, AKR1B15 (Homo sapiens, UniProt C9JRZ8); assay: Spectrophotometric activity assay (NADPH decrease at 340 nm), substrate kinetics; type: biochemical; settings: for Km / k cat: substrate, spectrophotometric, 0.2 mM NADPH; for Km: 100 mM sodium phosphate pH 7.0, 25°C, <1 values only approximate; for k cat: pH 7.0, 25°C
T1 construct: made in house; host or cells: E. coli BL21(DE3), with or without chaperone plasmids pBB540/pBB542
T1 sequence (C9JRZ8 whole entry): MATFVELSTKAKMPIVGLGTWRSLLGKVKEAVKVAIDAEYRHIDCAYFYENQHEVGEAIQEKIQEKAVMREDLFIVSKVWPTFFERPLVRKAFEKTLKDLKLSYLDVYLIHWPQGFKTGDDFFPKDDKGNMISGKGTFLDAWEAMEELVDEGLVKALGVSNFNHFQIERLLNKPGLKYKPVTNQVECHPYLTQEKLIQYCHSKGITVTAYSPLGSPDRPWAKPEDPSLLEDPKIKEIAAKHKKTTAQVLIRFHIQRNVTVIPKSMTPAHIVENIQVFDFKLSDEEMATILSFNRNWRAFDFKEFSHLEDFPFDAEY

AKR1B10 [2] = biological target: T2, AKR1B10 (Homo sapiens, UniProt O60218); settings: substrate; cited from earlier work
T2 construct: made in house
T2 sequence (O60218 whole entry): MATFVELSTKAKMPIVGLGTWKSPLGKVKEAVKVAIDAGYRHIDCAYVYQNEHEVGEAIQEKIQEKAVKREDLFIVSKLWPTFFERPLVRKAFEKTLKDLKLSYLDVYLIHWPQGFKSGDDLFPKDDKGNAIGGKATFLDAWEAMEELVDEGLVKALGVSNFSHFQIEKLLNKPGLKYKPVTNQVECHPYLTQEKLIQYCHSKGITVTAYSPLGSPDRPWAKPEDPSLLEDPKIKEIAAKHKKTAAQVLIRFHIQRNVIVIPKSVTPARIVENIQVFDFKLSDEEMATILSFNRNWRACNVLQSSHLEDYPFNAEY

AKR1B1 [3] = biological target: T3, AKR1B1 (Homo sapiens, UniProt P15121); settings: substrate, cited from earlier work; for Km: read-out: Km
T3 construct: made in house

AKR1B10 [4] = biological target: T2, AKR1B10; assay: Spectrophotometric activity assay (NADPH decrease at 340 nm), substrate kinetics; type: biochemical; settings: substrate, spectrophotometric; for Km: read-out: Km
AKR1B1 [5] = biological target: T3, AKR1B1; assay: as above; type: biochemical
Description: (§1) Activities were determined in 100 mM sodium phosphate, pH 7.0, at 25°C, using 0.2 mM NADPH in 0.2-cm path length cuvettes, with freshly prepared substrate solutions. One unit of activity is defined as the amount of enzyme required to transform 1 μmol of substrate per min at 25°C.
(§2) All compounds tested as inhibitors were dissolved in DMSO and assayed in a final concentration of 0.1% (v/v) DMSO using 6 mM D,L-glyceraldehyde as a substrate. Kinetic constant and IC50 (compound concentration that inhibits enzymatic activity by 50%) values were calculated by fitting the initial rates to the appropriate equation using Grafit 5.0 (Eritacus Software) and values were given as the mean ± standard error of three experiments. Standard error values were less than 20% of the mean values.

AKR1B15 [6] = biological target: T1, AKR1B15; assay: Inhibition screening with D,L-glyceraldehyde as substrate; type: biochemical; settings: for IC50: 6 mM D,L-glyceraldehyde as substrate, 0.1% DMSO
Description: as §1, §2

SMILES | Km (AKR1B15 [1]; read-out: Km) | k cat (AKR1B15 [1]) | Km (AKR1B10 [2]) | k cat (min^−1) (AKR1B10 [2]) | Km (AKR1B1 [3]) | k cat (min^−1) (AKR1B1 [3]) | further results
O=CC(O)CO (racemic) [D,L-glyceraldehyde] | 880 µM | 10.7 min⁻¹ | 6000 µM | 35 ^a min^−1 | 50 µM | 31 ^a min^−1 | –
O=C/C=C/c1ccccc1 [cinnamaldehyde] | < 1 µM | 13.3 min⁻¹ | – | – | – | – | k cat (AKR1B10 [4]): 240 min⁻¹; Km (AKR1B10 [4]): 34.7 µM; Km (AKR1B1 [5]; substrate, spectrophotometric): 31 µM; k cat (AKR1B1 [5]; substrate, spectrophotometric): 29 min⁻¹
C=CC=O [acrolein] | 36 µM | 8.8 min⁻¹ | 110 µM | 116 ^c min^−1 | 884 µM | 11 ^c min^−1 | –
OC[C@H]1OC(O)[C@H](O)[C@@H](O)[C@@H]1O (stereo partly drawn) [glucose] | – | – | – | – | – | – | rate of reduction (AKR1B15 [1]; 200 mM glucose): 12 mU/mg; rate of reduction (AKR1B1 [5]; 200 mM glucose): 500 mU/mg
CC(C)=CCCC(C)=CCCC(C)=CC=O [farnesal] | < 1 µM | 4.8 min⁻¹ | 2.3 µM | 30 ^b min^−1 | 37 µM | 27 ^b min^−1 | –
O=C1NC(=O)[C@@]2(CCOc3ccc(F)cc32)N1 [Sorbinil] | – | – | – | – | – | – | IC50 (AKR1B15 [6]): > 100 µM
O=Cc1cccnc1 [pyridine-3-aldehyde] | 2.9 µM | 9 min⁻¹ | 13 µM | 150 ^b min^−1 | 10 µM | 61 ^b min^−1 | –
O=Cc1ccccc1 [benzaldehyde] | – | 12.1 min⁻¹ | 9.7 µM | 104 ^b min^−1 | 21 µM | 91 ^b min^−1 | Km (AKR1B15 [1]): < 1 µM
CC(C)=CCCC(C)=CC=O (mixture of isomers) [citral] | 1.5 µM | 5.5 min⁻¹ | – | – | – | – | k cat (AKR1B10 [4]): 35 min⁻¹; Km (AKR1B10 [4]): 4.5 µM
NC(=O)C1=CN([C@@H]2O[C@H](COP(=O)(O)OP(=O)(O)OC[C@H]3O[C@@H](n4cnc5c(N)ncnc54)[C@H](O)[C@@H]3O)[C@@H](O)[C@H]2O)C=CC1 [NADH] | – | – | – | – | – | – | enzymatic activity relative to that with NADPH (AKR1B15 [1]; 0.2 mM NADH): less than 5%
CCCCCCCCCCCC(=O)N(C)CC(=O)[O-].[Na+] [Sarkosyl, sodium N-lauroylsarcosinate] | – | – | – | – | – | – | inhibition model (AKR1B15 [6]; data not shown): non-competitive
CC(=O)C(C)=O [2,3-butanedione] | < 1 µM | 10.6 min⁻¹ | 540 µM | 260 ^d min^−1 | 110 µM | 23 ^d min^−1 | –
CC1(C)CC[C@]2(C(=O)O)CC[C@]3(C)C(=CC[C@@H]4[C@@]5(C)CC[C@H](O)C(C)(C)[C@@H]5CC[C@]43C)[C@@H]2C1 [Oleanolic acid] | – | – | – | – | – | – | IC50 (AKR1B15 [6]): > 100 µM
CC(/C=C1\SC(=S)N(CC(=O)O)C1=O)=C\c1ccccc1 [Epalrestat] | – | – | – | – | – | – | IC50 (AKR1B15 [6]): > 50 µM

The next lines start with results.

Km (AKR1B15 [1]; read-out: Km) | k cat (AKR1B15 [1]) | SMILES | Km (AKR1B10 [2]) | k cat (min^−1) (AKR1B10 [2]) | Km (AKR1B1 [3]) | k cat (min^−1) (AKR1B1 [3]) | further results
2.2 µM | 5.2 min⁻¹ | CCCCCC(O)C=CC=O (stereo not drawn) [4-hydroxy-2-nonenal] | 31 µM | 121 ^c min^−1 | 716 µM | 50 ^c min^−1 | –
5 µM | 11.3 min⁻¹ | CCC/C=C/C=O [trans-2-hexenal] | 28 µM | 49 ^b min^−1 | 9 µM | 16 ^b min^−1 | –
1300 µM | 5.3 min⁻¹ | CCC(=O)CC(=O)CC [3,5-heptanedione] | – | – | – | – | Km (AKR1B10 [4]): > 50000 µM
< 1 µM | 9.5 min⁻¹ | CCCC(=O)C(C)=O [2,3-hexanedione] | 51 µM | 79 ^b min^−1 | 17 µM | 49 ^b min^−1 | –
3.1 µM | 7.3 min⁻¹ | CCCCCC=O [hexanal] | 112 µM | 142 ^b min^−1 | 5 µM | 28 ^b min^−1 | –
40 µM | 2.2 min⁻¹ | CC(=O)CC(C)=O [2,4-pentanedione] | – | – | – | – | k cat (AKR1B10 [4]): 8.6 min⁻¹; Km (AKR1B10 [4]): 58900 µM

Source: paper PMC4519324, “Substrate Specificity, Inhibitor Selectivity and Structure-Function Relationships of Aldo-Keto Reductase 1B15: A Novel Human Retinaldehyde Reductase” (PLoS ONE, 2015)
